Measurements reported in article PMC8903829 (eLife, 2022).
“And” between values parts separate entries of the source, which are not always exact repeats. Identical values can stand only once. “Also recorded” adds a separate entry of the source.

System: fast spiking interneurons
Assay: Current-clamp recording in brain slices, action-potential firing
Type: cell-based, mouse
Settings: for Fast spiking interneurons APs/1s: 0.25 μM, individual neurons; for Cumulative number of action potentials fired by each cell on increasing current injections: 250 nM, fast spiking interneurons
Protocol: Parasagittal cortical brain slices were prepared from> P21 mice using standard procedures (adapted from Tai et al., PNAS 2014). Briefly, the mouse was deeply anaesthetized with isoflurane and decapitated. The brain was removed and placed into chilled artificial cerebrospinal fluid (aCSF) solution containing (in mM): 125 NaCl, 25 NaHCO3, 2.5 KCl, 1.25 NaH2PO4, 2 CaCl2, 2 MgCl2, 10 d-glucose, pH 7.3, osmolarity adjusted to ~306 mOsm using sucrose. All solutions were saturated with 95% O2 and 5% CO2 constantly perfused with 95% O2/5% CO2. Slices with a thickness of 400 µm were prepared using a vibratome (Ted Pella, Inc). Following sectioning, the slices were placed in a holding chamber and incubated in a water bath at 34 °C for 15 min. The brain slices were removed from the water bath and held at room temperature for 60 min prior to recording.
All experiments involving rodent subjects were performed in accordance with the guidelines of the Canadian Council on Animal Care (CCAC). Following a 60-min incubation at room temperature, a brain slice was selected and placed on the stage of an upright microscope (SliceScope Pro 2000, Scientifica). The slice was constantly perfused with room temperature aCSF, containing 0.1% DMSO as a vehicle control, and oxygenated with 95% O2/5% CO2.The slice was visualized using brightfield microscopy, and a healthy neuron was selected from neocortical layer 5. […] Stimulation was applied in current-clamp mode, and consisted of a series of 1000ms square pulses, beginning at –20 pA and increasing by +20 pA increments (3000ms between pulses).
The slice was incubated in circulating compound for 10 min before repeating the series of square pulse stimulations. Working stock solutions were prepared in DMSO at a concentration of 20 mM.
All data analysis was done offline using ClampFit 10.7 (Molecular Devices). Data are presented as a mean ± SEM. For each sweep, the number of evoked APs was counted, and plotted as a function of current injection (beginning with –20 pA). […] Statistical significance was assessed using paired, two-way, student’s t-test applied at each current injection level with significance considered p < 0.05.

In the case of `Cc1cc(S(=O)(=O)Nc2cscn2)c(F)cc1N(C)[C@H]1CCN(Cc2ccccc2)C1` [NBI-921352], the “effect on action-potential firing, fast-spiking interneurons” value (0.25 µM NBI-921352) is reported as “trend toward slightly increased firing frequency; also recorded: no significant effect”, the “Fast spiking interneurons APs/1s” value (220 pA current injected) is reported as 51 APs/1s and 58 APs/1s and 67 APs/1s and the “Fast spiking interneurons APs/1s” value (current injected 0 pA) is reported as 0 APs/1s. For the same molecule, the “Fast spiking interneurons APs/1s” value (current injected 20 pA) was 0 APs/1s, the “Fast spiking interneurons APs/1s” value (current injected 40 pA) was 0 APs/1s and the “Fast spiking interneurons APs/1s” value (current injected 60 pA, row) was 0 APs/1s (2×) and 17 APs/1s. For the same molecule, the “Fast spiking interneurons APs/1s” value (current injected 80 pA, row) was 0 APs/1s and 1 APs/1s and 25 APs/1s, the “Fast spiking interneurons APs/1s” value (current injected 100 pA, row) was 20 APs/1s and 25 APs/1s and 33 APs/1s and the “Fast spiking interneurons APs/1s” value (current injected 120 pA, row) was 28 APs/1s and 33 APs/1s and 39 APs/1s. For the same molecule, the “Fast spiking interneurons APs/1s” value (current injected 140 pA, row) was 34 APs/1s and 40 APs/1s and 45 APs/1s, the “Fast spiking interneurons APs/1s” value (current injected 160 pA, row) was 38 APs/1s and 46 APs/1s and 52 APs/1s and the “Fast spiking interneurons APs/1s” value (current injected 180 pA, row) was 43 APs/1s and 50 APs/1s and 57 APs/1s. For the same molecule, the “Fast spiking interneurons APs/1s” value (current injected 200 pA, row) was 47 APs/1s and 55 APs/1s and 62 APs/1s, the “Fast spiking interneurons APs/1s” value (current injected 220 pA, row) was 51 APs/1s and 58 APs/1s and 67 APs/1s and the “Fast spiking interneurons APs/1s” value (current injected 240 pA, row) was 55 APs/1s and 62 APs/1s and 73 APs/1s. For the same molecule, the “Fast spiking interneurons APs/1s” value (current injected 260 pA, row) was 58 APs/1s and 65 APs/1s and 77 APs/1s, the “Fast spiking interneurons APs/1s” value (current injected 280 pA, row) was 61 APs/1s and 70 APs/1s and 82 APs/1s and the “Fast spiking interneurons APs/1s” value (current injected 300 pA, row) was 65 APs/1s and 73 APs/1s and 86 APs/1s. The “Fast spiking interneurons APs/1s” value (current injected 320 pA, row) was 68 APs/1s and 76 APs/1s and 89 APs/1s, the “Fast spiking interneurons APs/1s” value (current injected 340 pA, row) was 70 APs/1s and 80 APs/1s and 96 APs/1s and the “Fast spiking interneurons APs/1s” value (current injected 360 pA, row) was 73 APs/1s and 83 APs/1s and 100 APs/1s. The “Fast spiking interneurons APs/1s” value (current injected 380 pA, row) was 74 APs/1s and 83 APs/1s and 100 APs/1s, the “Fast spiking interneurons APs/1s” value (current injected 400 pA, row) was 75 APs/1s and 86 APs/1s and 103 APs/1s and the “Fast spiking interneurons APs/1s” value (current injected 420 pA, row) was 77 APs/1s and 87 APs/1s and 101 APs/1s. The “Fast spiking interneurons APs/1s” value (current injected 440 pA, row) was 77 APs/1s and 88 APs/1s and 103 APs/1s, the “Fast spiking interneurons APs/1s” value (current injected -20 pA) was 0 APs/1s and the “Cumulative number of action potentials fired by each cell on increasing current injections” value (up to current injected 0 pA) was 0. For the same molecule, the “Cumulative number of action potentials fired by each cell on increasing current injections” value (up to current injected 20 pA) was 0, the “Cumulative number of action potentials fired by each cell on increasing current injections” value (up to current injected 40 pA) was 0 and the “Cumulative number of action potentials fired by each cell on increasing current injections” value (up to current injected 140 pA, listed as NBI-921252) was 82 and 99 and 159. The “Cumulative number of action potentials fired by each cell on increasing current injections” value (up to current injected 160 pA, listed as NBI-921252) was 120 and 145 and 211, the “Cumulative number of action potentials fired by each cell on increasing current injections” value (up to current injected 180 pA, listed as NBI-921252) was 163 and 195 and 268 and the “Cumulative number of action potentials fired by each cell on increasing current injections” value (up to current injected 200 pA, listed as NBI-921252) was 210 and 250 and 330. The “Cumulative number of action potentials fired by each cell on increasing current injections” value (up to current injected 220 pA, listed as NBI-921252) was 261 and 308 and 397, the “Cumulative number of action potentials fired by each cell on increasing current injections” value (up to current injected 240 pA, listed as NBI-921252) was 316 and 370 and 470 and the “Cumulative number of action potentials fired by each cell on increasing current injections” value (up to current injected 260 pA, listed as NBI-921252) was 374 and 435 and 547. For the same molecule, the “Cumulative number of action potentials fired by each cell on increasing current injections” value (up to current injected 280 pA, listed as NBI-921252) was 435 and 505 and 629, the “Cumulative number of action potentials fired by each cell on increasing current injections” value (up to current injected 300 pA, listed as NBI-921252) was 500 and 578 and 715 and the “Cumulative number of action potentials fired by each cell on increasing current injections” value (up to current injected 320 pA, listed as NBI-921252) was 568 and 654 and 804. The “Cumulative number of action potentials fired by each cell on increasing current injections” value (up to current injected 340 pA, listed as NBI-921252) was 638 and 734 and 900, the “Cumulative number of action potentials fired by each cell on increasing current injections” value (up to current injected 360 pA, listed as NBI-921252) was 711 and 817 and 1000 and the “Cumulative number of action potentials fired by each cell on increasing current injections” value (up to current injected 380 pA, listed as NBI-921252) was 785 and 900 and 1100. The “Cumulative number of action potentials fired by each cell on increasing current injections” value (up to current injected 400 pA, listed as NBI-921252) was 860 and 986 and 1203, the “Cumulative number of action potentials fired by each cell on increasing current injections” value (up to current injected 420 pA, listed as NBI-921252) was 937 and 1073 and 1304 and the “Cumulative number of action potentials fired by each cell on increasing current injections” value (up to current injected 440 pA, listed as NBI-921252) was 1014 and 1161 and 1407. The “Cumulative number of action potentials fired by each cell on increasing current injections” value (up to current injected -20 pA) was 0.
